Structures can show the parent of a compound that is named as a salt. Where two headings read alike, the source gives them in different places. Blank lines part the entries; values can stand above or below the molecule they belong to.
Assays:
Test in all cases: CRE-luciferase assay of odorant receptor activation (Dual-Glo, Hana3A cells, RTP1S), dose-response EC50
Assay type in all cases: cell-based
[1] = test system: mouse odorant receptors (ORs); conditions: for log EC50, MOR271-1 / log EC50 (Table 4 value), MOR271-1: receptor MOR271-1; for log EC50 (Table 4 value), MOR258-17: receptor MOR258-17; for log EC50 (Table 4 value), MOR273-1: receptor MOR273-1; for log EC50 (Table 4 value), MOR5-1: receptor MOR5-1
Source text: (§1) Cloning mouse and human ORs. […] OR open reading frames were amplified from genomic DNA using proofreading KOD DNA polymerase (Toyobo/Novagen) and subcloned into pCI expression vectors (Promega) containing the first 20 residues of human rhodopsin (Rho tag). The sequences of the cloned receptors were verified by sequencing (3100 Genetic Analyzer, ABI Biosystems). Immunocytochemistry and FACS analysis. […] For FACS analysis, phycoerythrin (PE)-conjugated anti-mouse IgG (Jackson Immunologicals) was used. In order to monitor the transfection efficiency, Green Fluorescent Protein (GFP) was co-transfected with the OR. The intensity of receptor cell surface expression was calculated as the ratio of PE and GFP expression. 7-aminoactinomycin D (Calbiochem) was added before flow cytometry to mark dead cells which were excluded from the analysis. The gate and mean of PE positive cells was normalized by GFP values. Luciferase assay. […] Odorant receptor activation leads to an increase in intracellular cAMP; CRE-luciferase (Stratagene) was used to measure this change. […] Hana3A cells were plated on poly-D-lysine-coated 96-well plates (BioCoat; Becton Dickinson). […] For each 96-well plate transfected, 1 μg of CRE-Luc, 1 μg of pRL-SV40, 5 μg of odorant receptor plasmid, and 1 μg of RTP1S was used. Approximately 24 hours post transfection, the medium was replaced with CD293 chemically defined medium (Gibco) and the plate was incubed for 30 min at 37° C. The medium was then replaced with 25 μL of odorant solution diluted in CD293 and the plate was incubated for 4 hrs at 37° C. and 5% CO2. The manufacturer's protocols for measuring luciferase and Renilla luciferase activities was followed. […] All luminescence values were divided by the Renilla Luciferase activity to control for transfection efficiency in a given well. Normalized luciferase activity was calculated using the formula (LN−Lmin)/(Lmax−Lmin), where LN is the luminescence of firefly luciferase in response to the odorant, Lmin is the minimum luciferase value on a plate or set of plates, and Lmax is the maximum luciferase value on a plate or set of plates. The data was analyzed using Microsoft Excel and GraphPad Prism 4. Screening procedure. The entire OR library was stimulated with eight separate odorant mixtures formed from 93 odorants (FIG. 12). […] A comparison between the 93 individual odorants at a 100 μM dose and a no-odor control was performed for all 290 […]. Each comparison was performed in triplicate; statistical significance was assessed by t-test (uncorrected for multiple comparisons). […] A single odorant was used on each plate to avoid cross-contamination, and each OR odorant dose was tested at least three times. The data was fit to a sigmoidal curve. […] Physicochemical descriptors. […] Receptor descriptors. […] Correlations between descriptors and responses. […] All odorants for which there were fewer than 3 responsive receptors were eliminated. For all remaining odorant pairs the Pearson correlation between EC50 vectors and the Euclidean distance between descriptor vectors was calculated. The Pearson correlation between these two sets of distances was then measured. Optimizing descriptors. […] In this method one begins with an empty set of descriptors. Each descriptor is combined with the previous set of descriptors and correlation values are computed for all of these candidate sets of descriptors. To reduce overfitting, the data is randomly divided into ten subsets and correlation values are computed for each leave-one out subset. The final correlation coefficient for each set of descriptors is the average of the correlation coefficients for each subset. The set with the best correlation coefficient then becomes the new set of descriptors and the process is repeated until the correlation coefficient increases by less than 0.004 in three consecutive iterations.

[2] = target: T1, human odorant receptors (ORs) (Homo sapiens, UniProt Q9Y3N9); conditions: receptor OR2W1
T1 construct: OR open reading frames were amplified from genomic DNA; expressed in transfected cells; host or cells: Hana3A cells, co-transfected with RTP1S, CRE-luciferase and pRL-SV40
T1 sequence (Q9Y3N9 1-320): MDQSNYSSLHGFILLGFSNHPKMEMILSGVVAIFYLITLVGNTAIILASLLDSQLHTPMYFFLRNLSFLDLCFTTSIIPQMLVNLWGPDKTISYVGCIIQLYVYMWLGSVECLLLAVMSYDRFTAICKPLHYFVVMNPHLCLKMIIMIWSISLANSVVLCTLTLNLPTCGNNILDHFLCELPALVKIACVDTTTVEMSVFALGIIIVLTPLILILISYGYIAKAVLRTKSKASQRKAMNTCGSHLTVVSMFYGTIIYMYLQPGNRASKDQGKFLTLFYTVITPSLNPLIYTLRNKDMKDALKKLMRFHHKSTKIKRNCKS
Source text: as §1, with “For all remaining odorant pairs the Pearson correlation between EC50 vectors and the Euclidean distance between descriptor vectors was calculated.” left out, “subset.” for “subset. The set with the best correlation coefficient then becomes the new set of descriptors and the process is repeated until the correlation coefficient increases by less than 0.004 in three consecutive iterations.”
(§2) The entire OR library was stimulated with one of 8 odorant mixtures drawn from 93 odorants chosen to represent diverse functional groups, sizes, and structures (Table 3). Each mixture was applied at five different concentrations. […] The 93 odorants were then applied individually at 100 μM to the 290 mixture-responsive ORs.

[3] = target: T2, human odorant receptors (ORs) (Homo sapiens, UniProt Q9P1Q5); conditions: receptor OR1A1; read-out: log EC50 (Table 4 value), OR1A1 (converted)
T2 construct: OR open reading frames were amplified from genomic DNA; expressed in transfected cells; host or cells: Hana3A cells, co-transfected with RTP1S, CRE-luciferase and pRL-SV40
T2 sequence (Q9P1Q5 1-309): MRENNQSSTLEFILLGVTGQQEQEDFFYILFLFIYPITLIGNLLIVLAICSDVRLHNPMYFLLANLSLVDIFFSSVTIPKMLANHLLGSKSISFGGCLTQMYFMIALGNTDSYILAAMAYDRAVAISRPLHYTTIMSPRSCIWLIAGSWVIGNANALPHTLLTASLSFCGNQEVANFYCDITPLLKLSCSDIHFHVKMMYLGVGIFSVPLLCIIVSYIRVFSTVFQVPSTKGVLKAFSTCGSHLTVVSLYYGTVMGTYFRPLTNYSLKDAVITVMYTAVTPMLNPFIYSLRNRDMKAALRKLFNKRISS
Source text: as §1, with “For all remaining odorant pairs the Pearson correlation between EC50 vectors and the Euclidean distance between descriptor vectors was calculated.” left out, “subset.” for “subset. The set with the best correlation coefficient then becomes the new set of descriptors and the process is repeated until the correlation coefficient increases by less than 0.004 in three consecutive iterations.”
as §2

[4] = read-out: log EC50 (Table 4 value), OR2W1 (converted)
[5] = read-out: log EC50 of odorant at OR2W1 (0 = no response) (converted)

SMILES: CCCCCO [1-Pentanol]
log EC50, MOR41-1 ([1]; receptor MOR41-1, 0 = no response): −3.537

SMILES: CCCCC(C)=O [2-Hexanone]
log EC50, MOR271-1 ([1]; 0 = no response): −4.936
log EC50, MOR272-1 ([1]; receptor MOR272-1, 0 = no response): −4.251
EC50 ([2]; 0 = no response, read-out: log EC50, OR2W1 (converted)): 73.3 µM

SMILES: CCCC(C)=O [2-Penonone]
log EC50, MOR271-1 ([1]; 0 = no response): −5.111

SMILES: O=c1cc(O)c2ccccc2o1 [4-Hydroxycoumarin]
log EC50 (Table 4 value), MOR41-1 ([1]; receptor MOR41-1): −4.344

SMILES: CC12CCC(CC1=O)C2(C)C (stereo not drawn) [(−)-Camphor]
log EC50, MOR107-1 ([1]; receptor MOR107-1, 0 = no response): −3.704
log EC50, MOR128-2 ([1]; receptor MOR128-2, 0 = no response): −4.373
log EC50, MOR138-1 ([1]; receptor MOR138-1, 0 = no response): −4.952
log EC50, MOR139-1 ([1]; receptor MOR139-1, 0 = no response): −3.902
log EC50, MOR189-1 ([1]; receptor MOR189-1, 0 = no response): −4.839
log EC50, MOR277-1 ([1]; receptor MOR277-1, 0 = no response): −3.861

SMILES: C=CCOC(=O)CCCCCC [Allyl heptanoate]
EC50 [3]: 475 µM

SMILES: c1ccccc1 [Benzene]
log EC50 (Table 4 value), MOR271-1 [1]: −4.005

SMILES: CCCCOC=O [Butyl formate]
EC50 [2, 4]: 37.4 µM

SMILES: O=C1CCCCC1 [Cyclohexanone]
log EC50 (Table 4 value), MOR41-1 ([1]; receptor MOR41-1): −3.456
log EC50 (Table 4 value), MOR136-1 ([1]; receptor MOR136-1): −3.065
log EC50 (Table 4 value), MOR139-1 ([1]; receptor MOR139-1): −3.138
log EC50 (Table 4 value), MOR185-1 ([1]; receptor MOR185-1): −3.594
log EC50 (Table 4 value), MOR251-1 ([1]; receptor MOR251-1): −3.193
log EC50 (Table 4 value), MOR253-1 ([1]; receptor MOR253-1): −3.219
log EC50 (Table 4 value), MOR258-1 ([1]; receptor MOR258-1): −3.824
log EC50 (Table 4 value), MOR258-17 [1]: −4.1
log EC50 (Table 4 value), MOR271-1 [1]: −3.463
log EC50 (Table 4 value), MOR272-1 ([1]; receptor MOR272-1): −3.254
log EC50 (Table 4 value), MOR273-1 [1]: −3.208
log EC50 (Table 4 value), MOR277-1 ([1]; receptor MOR277-1): −3.568

SMILES: CCCCCCCCCC=O [Daconal]
log EC50 (Table 4 value), MOR30-1 ([1]; receptor MOR30-1): −4.033
log EC50 (Table 4 value), MOR37-1 ([1]; receptor MOR37-1): −3.477

SMILES: CCCCCCC=O [Heptonal]
log EC50 (Table 4 value), OR2W1 [2]: −4.056

SMILES: CCCCCCO [Hexanol]
log EC50 (Table 4 value), MOR1-1 ([1]; receptor MOR1-1): −3.987
log EC50 (Table 4 value), MOR4-1 ([1]; receptor MOR4-1): −3.231
log EC50 (Table 4 value), MOR271-1 [1]: −3.322
log EC50 (Table 4 value), OR2W1 [2]: −5.102

SMILES: CCCCCCCCC=O [Nonanal]
log EC50 of odorant at MOR30-1 (0 = no response) ([1]; receptor MOR30-1): −3.914
log EC50 of odorant at MOR33-1 (0 = no response) ([1]; receptor MOR33-1): −3.234
log EC50 of odorant at MOR37-1 (0 = no response) ([1]; receptor MOR37-1): −3.295
log EC50 of odorant at MOR40-1 (0 = no response) ([1]; receptor MOR40-1): −3.194
EC50 [2, 5]: 252 µM

SMILES: CCCCCCCC=O [Octanal]
EC50 [2, 5]: 43.6 µM

Results, then the molecule that gave them:

log EC50, MOR2-1 ([1]; receptor MOR2-1, 0 = no response): −2.982
SMILES: CCC(C(=O)O)c1ccccc1 (single isomer, unassigned; (-)) [(−)-2-Phenylbutric acid]

log EC50 (Table 4 value), MOR258-17 [1]: −4.462
SMILES: CCCCCOC(=O)CCCCC [Amyl hexanote]

log EC50 (Table 4 value), MOR5-1 [1]: −3.749
log EC50 (Table 4 value), MOR25-1 ([1]; receptor MOR25-1): −4.194
log EC50 (Table 4 value), MOR30-1 ([1]; receptor MOR30-1): −4.987
log EC50 (Table 4 value), MOR33-1 ([1]; receptor MOR33-1): −4.487
log EC50 (Table 4 value), MOR37-1 ([1]; receptor MOR37-1): −4.323
log EC50 (Table 4 value), MOR40-1 ([1]; receptor MOR40-1): −4.121
log EC50 (Table 4 value), MOR203-1 ([1]; receptor MOR203-1): −3.751
log EC50 (Table 4 value), MOR258-17 [1]: −4.627
log EC50 (Table 4 value), MOR260-1 ([1]; receptor MOR260-1): −3.542
EC50 [2, 4]: 175 µM
SMILES: CCCCCCCCCC(=O)O [Decanoic acid]

log EC50 (Table 4 value), MOR271-1 [1]: −4.077
log EC50 (Table 4 value), MOR272-1 ([1]; receptor MOR272-1): −5.25
log EC50 (Table 4 value), MOR273-1 [1]: −5.761
SMILES: CCOC(=O)C(C)C [Ethyl isobutyrate]

log EC50 (Table 4 value), MOR1-1 ([1]; receptor MOR1-1): −3.823
log EC50 (Table 4 value), MOR5-1 [1]: −3.583
log EC50 (Table 4 value), MOR23-1 ([1]; receptor MOR23-1): −4.856
log EC50 (Table 4 value), MOR30-1 ([1]; receptor MOR30-1): −3.575
log EC50 (Table 4 value), MOR31-1 ([1]; receptor MOR31-1): −5.2
log EC50 (Table 4 value), MOR33-1 ([1]; receptor MOR33-1): −4.148
SMILES: CCCCCCC(=O)O [Heptanoic acid]

EC50 [2, 5]: 13.7 µM
SMILES: CCCCCCOC(C)=O [Hexyl acetate]

log EC50 of odorant at MOR1-1 (0 = no response) ([1]; receptor MOR1-1): −4.813
SMILES: CCCCC(=O)O [Pentanoic acid]

log EC50 of odorant at MOR9-1 (0 = no response) ([1]; receptor MOR9-1): −6.334
log EC50 of odorant at MOR15-1 (0 = no response) ([1]; receptor MOR15-1): −3.587
SMILES: COc1cc(C(=O)O)ccc1O [Vanillic acid]
